In PubChem BioAssay (NCI) one finds TGI and GI50 data, which are given here for 22 compounds.

Assay in all cases: NCI tumour cell line growth inhibition, 48 h
In test [1] the test system is UO-31 renal.
The test system of test [2] is SK-MEL-5 melanoma.
Test [3] concerns MCF7 breast.
In test [4] the test system is LOX IMVI melanoma.
Test [5] relates to HOP-92 NSCLC.
Test [6] deals with OVCAR-4 ovarian.
Test [7] has as its system NCI-H522 lung.
For test [8], the system named is ACHN renal.
Test [9] has as its system SNB-19 CNS.
Test [10] relates to HL-60(TB) leukemia.

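Dose response: 5 concentrations. Exposure: 48 h. Format: 96-well plates. Endpoint: linear interpolation; highest concentration if not reached. At the GI50, growth is halved. TGI: concentration producing complete growth inhibition.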

As to `C=C1C(=O)OC2C1C(OC(=O)/C(C)=C/C)CC1(C)C(=O)CCC(=C)C21` (stereo unspecified), the TGI came to 13.3 µM in test [1]; 22.8 µM in [2]; 18 µM in [3]; 13.2 µM in [4]; 19.9 µM in test [5]; 30.3 µM in [6]. Besides, the TGI in test [7] came out at 7.63 µM; in test [8] it was 8.23 µM.
Turning to `Oc1cc2cccc[n+]2c2cccc(Cl)c12`, the GI50 in [1] is 31.3 µM; in [9] it was 92.3 µM; in [2], 19.7 µM; in test [3] it was 16.7 µM; in [5], 15.8 µM; in test [6], 16.2 µM. Further, the GI50 was 94.8 µM in test [7], 35.8 µM in test [10] and 21.7 µM in test [8]. The TGI was 93 µM in [1]; 34.7 µM in [2]; 36.5 µM in [3]; 71.5 µM in test [5]; 39.5 µM in test [6]; 52.5 µM in test [8].
Take `[C-]#[O+].[C-]#[O+].[Ir].[O-]c1cccc2cccnc12`: the GI50 in test [1], in test [9], in test [4] and in test [6] was greater than 100 µM throughout. For the same compound, the TGI in [1], in test [9], in [2], in test [4] and in test [6] was greater than 100 µM in each case.
Turning to `CC(C)C(N=Cc1ccccc1O)C(=O)O` (stereo unspecified), the TGI in test [1], in test [9], in [2], in test [3], in [4] and in test [5] was greater than 100 µM throughout. In addition, the TGI in test [6], in [7], in test [10] and in [8] was greater than 100 µM throughout.
Consider `Fc1ccc(-c2ccc(-c3nnc(-c4cc(F)c(Cl)cc4Cl)o3)o2)cc1Cl`, for which the GI50 was 34.7 µM in [1]; 25.4 µM in [9]; 17 µM in test [2]; 26.8 µM in [3]; 20.8 µM in test [4]; 38.5 µM in test [5]. Moreover, the GI50 was 50.9 µM in [6], 38.7 µM in test [7], greater than 100 µM in test [10] and 35.3 µM in test [8]. In addition, the TGI in test [1] was greater than 100 µM; in [9] it was greater than 100 µM; in test [2], 31.9 µM; in [3], greater than 100 µM; in [4], 48.9 µM; in test [5], greater than 100 µM. Moreover, the TGI in test [6], in test [7], in test [10] and in [8] was greater than 100 µM throughout.
In the case of `O=C(/C=C/c1ccc(O)cc1)NCCc1ccc(O)cc1`, the TGI in test [1], in test [9], in [2], in [3], in [4] and in test [5] was greater than 12.5 µM in each case. Also, the TGI in test [6], in [7], in [10] and in [8] was greater than 12.5 µM throughout.
Regarding `c1ccc2sc(C3(N4CCCCC4)CCCC3)cc2c1`, the TGI in test [1] turned out to be 33.8 µM; in test [9], 29.2 µM; in test [2], 22.9 µM; in [3], 21.5 µM; in test [4], 32.7 µM; in test [5], 25.4 µM. Moreover, the TGI was determined as 23.7 µM in test [6], 24.8 µM in [7], 19.1 µM in [10] and 21 µM in [8].
In the case of `O=S(=O)(c1ccc(I)cc1)N(c1ccccc1)S(=O)(=O)C(F)(F)C(F)(F)C(F)(F)C(F)(F)F`, the TGI in test [1] is greater than 100 µM; in test [9], greater than 100 µM; in test [3] it was greater than 100 µM; in [4], greater than 100 µM; in test [5] it was 42 µM; in [6] it was 68.1 µM. Further, the results for the TGI in [7], in [10] and in test [8] were 84.9 µM, greater than 100 µM and greater than 100 µM, respectively.
As to `C[N+]1(C)CCC(C#N)(c2ccccc2)CC1`, the TGI in test [1], in test [9], in [2], in test [3], in [5] and in test [6] was greater than 100 µM in each case. The TGI in [10] and in test [8] was greater than 100 µM in each case.
As to `CC(=O)OCC1OC(O[C@@H]2c3c(O)c4c(c(O)c3C3=C(NN(c5ccc([N+](=O)[O-])cc5[N+](=O)[O-])[Se]3=O)[C@@]2(C)O)C(=O)c2ccccc2C4=O)C(OC(C)=O)C(OC(C)=O)C1OC(C)=O` (stereo partly specified), the TGI worked out at 0.548 µM in [1]; 0.42 µM in test [2]; 0.498 µM in test [3]; 0.319 µM in [4]; 2.05 µM in test [5]; 0.634 µM in test [6]. In addition, the results for the TGI in [7] and in [8] were 0.29 µM and 0.607 µM, respectively.
For `O=S(O)c1cc(Cl)cc(Cl)c1O`, the TGI in [1], in test [9], in [4], in test [6], in test [7] and in [10] was greater than 100 µM throughout. In [8], this compound returned a TGI greater than 100 µM.
Regarding `COc1ccc(SC(C)(SC)c2ccccn2)c(OC)n1` (stereo unspecified), the TGI in test [1], in [9], in test [2], in test [3], in test [4] and in [5] was greater than 100 µM each time. Also, the TGI was greater than 100 µM in [6], greater than 100 µM in test [7], 28.3 µM in [10] and greater than 100 µM in test [8].
For `O=C1/C(=C\c2ccc(-c3ccc(Cl)cc3Cl)o2)SC2N=C(COc3ccc(Cl)cc3)NN12` (stereo unspecified), the TGI in test [1], in test [9], in [2], in [3], in test [4] and in [5] was greater than 100 µM each time. The TGI in test [6], in [7], in test [10] and in test [8] was greater than 100 µM in each case.
With `N#C/C=C1\C=CC(O)C(O)C1OC1OC(CO)C(O)C(O)C1O` (stereo unspecified), the TGI in [1], in [9], in [2], in test [3], in test [4] and in test [5] was greater than 100 µM in each case. In addition, the TGI in test [6], in test [7], in [10] and in test [8] was greater than 100 µM in each case.
`S=C1N(c2ccc(Cl)cc2)C2=C(N=Nc3ccccc3)C(=Nc3ccccc3S2)N1c1ccccn1`: the TGI in test [1] is 21.7 µM; in [9], 28.3 µM; in [2], 23.4 µM; in test [3], 15.2 µM; in test [4], 24.4 µM; in test [5], 49.6 µM. Further, the figures for the TGI in [10] and in test [8] were 28.1 µM and 27.5 µM, respectively.
Take `CN(C)Cc1ccc(C(=O)Nc2ccc3ncnc(Nc4ccc(Oc5cccc(F)c5)c(Cl)c4)c3c2)cc1`: the GI50 in test [1] is 1.3 µM; in [9], 1.66 µM; in [2], 1.59 µM; in test [3], 1.54 µM; in test [4] it was 1.69 µM; in test [5] it was 1.09 µM. Also, the GI50 in test [6] was 1.53 µM; in [10] it was 1.91 µM; in test [8], 1.15 µM. The TGI in test [1] was found to be 2.59 µM; in test [9], 3.09 µM; in [2], 2.97 µM; in test [3] it was 3 µM; in [4], 3.15 µM; in test [5], 2.44 µM. The TGI worked out at 3.09 µM in test [6], 3.7 µM in test [10] and 2.36 µM in test [8].
For the compound `O=S(=O)(O)c1c(N=Nc2c(O)ccc3ccccc23)ccc2ccccc12`, the TGI in [1], in test [9], in test [2], in test [4], in test [5] and in test [6] was greater than 100 µM each time. Besides, the TGI in [7] was greater than 100 µM.
For `Nc1nc(SCc2ccccc2)c2ncn(Cc3ccccc3)c2n1`, the TGI in test [1], in test [9], in test [2], in test [3], in [4] and in test [5] was greater than 100 µM throughout. Also, the TGI in test [6], in [7], in [10] and in [8] was greater than 100 µM in each case.
For the compound `COC(=O)C1=CC[C@@H]2C(C(=O)O)=CO[C@@H](OC3OC(CO)C(O)C(O)C3O)[C@H]12` (stereo partly specified), the TGI in test [1] was greater than 300 µM; in [9] it was greater than 300 µM; in test [2], greater than 288 µM; in test [3] it was greater than 131 µM; in test [4], greater than 300 µM; in [5], greater than 127 µM. The TGI in [6], in test [7] and in test [10] was greater than 300 µM each time.
Turning to `O=C1c2ccccc2-c2ccc(N=[N+]([O-])c3ccc4c(c3)C(=O)c3ccccc3-4)cc21`, the TGI in test [1], in test [9], in test [2], in test [3], in test [4] and in test [5] was greater than 100 µM throughout. Besides, the TGI in test [6], in [7], in test [10] and in [8] was greater than 100 µM in each case.
Turning to `CC1(C)COC(/C=C/C2=NC(C)(C)CO2)=N1`, the TGI was 64.3 µM in test [1]; greater than 100 µM in [9]; 27.3 µM in test [2]; 33.1 µM in [3]; 16.7 µM in test [4]; 84.1 µM in test [5]. For the same compound, the TGI was 99.5 µM in [6], 13.4 µM in test [7], 49.4 µM in test [10] and 57.3 µM in test [8].
For the compound `S=C(Nc1ccc(Cl)cc1)Nc1ccc(Cl)cc1` (tested in a mixture with another compound), the GI50 is 2.26 µM in test [1]; 3.25 µM in test [9]; 1.55 µM in test [2]; 2.89 µM in [3]; 1.71 µM in test [4]; 1.55 µM in test [5]. Further, the GI50 in test [6] was 2.92 µM; in [7], 1.39 µM; in test [10], 1.98 µM; in test [8], 2.37 µM. The TGI in [1] was 34.9 µM; in test [9], greater than 100 µM; in [2], 2.94 µM; in test [3] it was 8.09 µM; in test [4], 3.57 µM; in test [5], 4.56 µM. Moreover, the TGI in [6] is greater than 100 µM; in test [7], 4.37 µM; in [10], 4.98 µM; in test [8], 9.12 µM.
